According to patent US4920215A, “Antibiotic produced by fermentation” (Pfizer Inc., priority 1987, dated 1990):

Tested on: rumen fluid
Assay: In vitro rumen technique, propionic acid production
Conditions: 16 h, pH 6.8, read-out: increase of propionic acid over the control

Question: CC[C@@H](C(=O)[C@@H](C)[C@@H](O)[C@H](C)[C@@H]1O[C@@H]([C@@H](CC)C(=O)O)CC[C@@H]1C)[C@H]1O[C@]2(C=C[C@@H](O)[C@]3(CC[C@@](C)([C@H]4CC[C@](O)(CC)[C@H](C)O4)O3)O2)[C@H](C)C[C@@H]1C [salinomycin] was tested. Which activation at 10 µg/mL did it give?
Answer: ~61%
